# Test results: patent publication US20120264755A1, “PYRIDINYL DERIVATIVES AS INHIBITORS OF ENZYME NICOTINAMIDE PHOSPHORIBOSYLTRANSFERASE” (TopoTarget, priority 2009, published 2012)
# Where a name gives a salt, the structure may show the parent alone.
# Test system: A2780 cells
# Assay: In vitro cell proliferation assay (WST-1 assay)
# Assay type: cell-based
# Details: Homo sapiens, total incubation time 72 h, WST-1 readout
# Description: A2780 cells were seeded in 96-well plates at 3×10^3 cells/well in 100 μL of culture medium, 8 wells were left empty for media only controls.
# After 24 h the compound titrations were performed, in a separate dilution plate, by serially diluting the compounds of general formula (I) in culture medium. A 100 μL of each dilution was added to the plated cells, this was done in triplicate, and controls (e.g. DMSO and blanks) were included. The plates were incubated for 24 h at 37° C. in a CO2 incubator. The compound titrations were repeated in a separate dilution plate after 24 h. The media plus compound from the assay plates were then aspirated. A 100 μL of media was then added to all wells, followed by 100 μL of each compound dilution. The plates were incubated for a further 48 h at 37° C. in a CO2 incubator (total incubation time 72 h). The number of viable cells was then assessed using Cell Proliferation Reagent WST-1. 10 μL of WST-1 reagent added to each well and incubated for one to four hours at 37° C. in CO2 incubator. The absorbance was measured (450 nm/690 nm).
# The activity of compounds of general formula (I) in reducing the number of viable cells was calculated as:
# % activity=[(S^c−B)/(S^o−B)]×100
# S^c denotes signal measured in the presence of test compound, S^o denotes signal detected in the absence of compound, and B denotes background signal, measured in blank wells containing medium only. Analyse data using GraphPad Prism.
row,SMILES,IC50
1,"O=C(NCCCCCCCCN(CCCN1CCOCC1)C(=O)c1ccccc1)NCc1cccnc1 [Compound 1073, N-(3-morpholinopropyl)-N-(8-(3-(Pyridin-3-ylmethyl)ureido)octyl)benzamide]",0.31 nM
2,"CC(C)S(=O)(=O)N(CCCCCCCCNC(=O)Nc1ccncc1)OCc1ccccc1 [Compound 1028, N-(Benzyloxy)-N-(8-(3-pyridin-4-ylureido)octyl)propane-2-sulfonamide]",0.37 nM
3,"N#C/N=C(\NCCCCCCNOCC1CCCCC1)Nc1ccncc1 [Compound 1110, 2-cyano-1-(8-(cyclohexylmethoxyamino)hexyl)-3-(pyridin-4-yl)guanidine]",0.015 nM
4,"N#C/N=C(\NCCCCCCCCN(CCCN1CCOCC1)C(=S)Nc1ccccc1)Nc1ccncc1 [Compound 1094, 1-(8-(2-cyano-3-(pyridin-4-yl)guanidino)octyl)-1-(3-morpholinopropyl)-3-Phenylthiourea]",0.036 nM
5,"O=C(c1ccccc1)N(CCCCCCCCNc1c(Nc2ccncc2)c(=O)c1=O)CCCN1CCOCC1 [Compound 1072, N-(8-(3,4-dioxo-2-(pyridin-4-ylamino)cyclobut-1-enylamino)octyl)-N-(3-morpholinopropyl)benzamide]",0.17 nM
6,CC(C)S(=O)(=O)N(CCCCCCCCN/C(=N\C#N)Nc1ccncc1)OCc1ccccc1 [Compound 1024],0.047 nM
7,"O=C(c1ccccc1)N(CCCCCCCCNC(=S)Nc1ccncc1)CCCN1CCOCC1 [Compound 1075, N-(3-morpholinopropyl)-N-(8-(3-(pyridin-4-yl)thioureido)octyl)benzamide]",0.39 nM
8,"CS(=O)(=O)N(CCCCCCN/C(=N\C#N)Nc1ccncc1)OCC1CCCCC1 [Compound 1112, N-(6-(2-cyano-3-(pyridin-4-yl)guanidino)hexyl)-N-(cyclohexylmethoxy)methanesulfonamide]",0.086 nM
9,O=C(NCCCCCCN(CCCN1CCOCC1)S(=O)(=O)C1CCCC1)NCc1cccnc1 [Compound 1046],0.38 nM
10,"CP(C)(=O)N(CCCCCCCCN/C(=N\C#N)Nc1ccncc1)CCCN1CCOCC1 [Compound 1088, 2-Cyano-1-(8-((dimethylphosphoryl)(3-morpholinopropyl)amino)octyl)-3-(pyridin-4-yl)guanidine]",5.65 nM
11,"N#C/N=C(\NCCCCCCCCN(CCCN1CCOCC1)C(=O)c1ccccc1)Nc1ccncc1 [Compound 1071, N-(8-(2-cyano-3-(pyridin-4-yl)guanidino)octyl)-N-(3-morpholinopropyl)benzamide]",0.049 nM
12,"CCS(=O)(=O)N(CCCCCCN/C(=N\C#N)Nc1ccncc1)OCC1CCCCC1 [Compound 1138, N-(6-(2-cyano-3-(pyridin-4-yl)guanidino)hexyl)-N-(cyclohexylmethoxy)ethane-2-sulfonamide]",0.059 nM
13,"CCN(CCCCCCCCNC(=O)NCc1cccnc1)OCc1ccccc1 [Compound 1081, 1-(8-(benzyloxy(ethyl)amino)octyl)-3-(pyridin-3-ylmethyl)urea oxalate]",0.55 nM
14,N#C/N=C(\NCCCCCCCCN(CCF)S(=O)(=O)C1CCCCC1)Nc1ccncc1 [Compound 1103],0.005 nM
15,"O=C(/C=C/c1cccnc1)NCCCCCCCN(OC1CCCCO1)S(=O)(=O)Cc1ccccc1 (stereo not shown) [Compound 1058, (E)-N-(7-(1-phenyl-N-(tetrahydro-2H-pyran-2-yloxy)methylsulfonamido)heptyl)-3-(pyridin-3-yl)acrylamide]",0.39 nM
16,"O=C(NCCCCCCCN(CCCN1CCOCC1)S(=O)(=O)C1CCCC1)NCc1cccnc1 [Compound 1015, N-(3-morpholinopropyl)-N-(7-(3-(pyridin-3-ylmethyl)ureido)heptyl) cyclopentanesulfonamide]",0.1 nM
17,"O=c1c(NCCCCCCCN(OC2CCCCO2)S(=O)(=O)Cc2ccccc2)c(Nc2ccncc2)c1=O (stereo not shown) [Compound 1056, N-(7-(3,4-Dioxo-2-(pyridin-4-ylamino)cyclobut-1-enylamino)heptyl)-1-Phenyl-N-(tetrahydro-2H-pyran-2-yloxy)methanesulfonamide]",0.35 nM
18,CS(=O)(=O)N(CCCCCN/C(=N\C#N)Nc1ccncc1)OCC1CCCCC1 [Compound 1143],0.081 nM
19,"N#C/N=C(\NCCCCCCCCN(CCCN1CCOCC1)C(=O)c1ccccc1)Nc1cccnc1 [Compound 1076, N-(8-(2-cyano-3-(pyridin-3-yl)guanidino)octyl)-N-(3-morpholinopropyl)benzamide]",0.075 nM
20,"O=C(/C=C/c1cccnc1)NCCCCCCCCN(CCCN1CCOCC1)C(=O)c1ccccc1 [Compound 1074, (E)-N-(3-morpholinopropyl)-N-(8-(3-(pyridin-3-yl)acrylamido)octyl)benzamide]",0.6 nM

row,SMILES,IC50
1,"N#CN=C(NCCCCCCOc1ccc(Cl)cc1)Nc1ccncc1 [CHS828, 1-(6-(4-chlorophenoxy)hexyl)-2-cyano-3-(pyridine-4-yl)guanidine, reference compound]",0.52 nM
2,"CC(C)NC(=O)N(CCCCCCN/C(=N\C#N)Nc1ccncc1)OCC1CCCCC1 [Compound 1115, 1-(6-(2-cyano-3-(pyridin-4-yl)guanidino)hexyl)-1-(cyclohexylmethoxy)-3-isopropylurea]",0.033 nM
3,"N#C/N=C(\NCCCCCCN(CCCN1CCOCC1)C1CCCCC1)Nc1ccncc1 [Compound 1003, 2-cyano-1-(6-(cyclohexyl(3-morpholinopropyl)amino)hexyl)-3-(pyridin-4-yl)guanidine]",11.2 nM
4,CS(=O)(=O)N(CCCCCCCCNC(=O)NCc1cccnc1)OCc1ccccc1 [Compound 1022],0.8 nM
5,"CCN(CCCCCCCCN/C(=N\C#N)Nc1ccncc1)OCCN1CCOCC1 [Compound 1086, 2-Cyano-1-(8-(ethyl(2-morpholinoethoxy)amino)octyl)-3-(pyridin-4-yl)guanidine oxalate]",0.024 nM
6,"N#C/N=C(\NCCCCCCCN(CCCN1CCOCC1)S(=O)(=O)C1CCCC1)Nc1ccncc1 [Compound 1011, N-(7-(2-cyano-3-(pyridin-4-yl)guanidino)heptyl)-N-(3-morpholinopropyl)cyclopentanesulfonamide]",0.003 nM
7,"CCS(=O)(=O)N(CCCCCCCN/C(=N\C#N)Nc1ccncc1)OCC1CCCCC1 [Compound 1060, N-(7-(2-cyano-3-(pyridin-4-yl)guanidino)heptyl)-N-(cyclohexylmethoxy)ethanesulfonamide]",0.049 nM
8,N#C/N=C(\NCCCCCCCN(OC1CCCCO1)S(=O)(=O)Cc1ccccc1)Nc1ccncc1 (stereo not shown) [Compound 1055],0.025 nM
9,"O=c1c(NCCCCCCCN(CCCN2CCOCC2)S(=O)(=O)C2CCCC2)c(Nc2ccncc2)c1=O [Compound 1019, N-(7-(3,4-dioxo-2-(pyridin-4-ylamino)cyclobut-1-enylamino)heptyl)-N-(3-morpholinopropyl)cyclopentanesulfonamide]",0.44 nM
10,"O=C(NCCCCCCCCN(CCCN1CCOCC1)S(=O)(=O)C1CCCC1)NCc1cccnc1 [Compound 1012, N-(3-morpholinopropyl)-N-(8-(3-(pyridin-3-ylmethyl)ureido)octyl)cyclopentanesulfonamide]",0.09 nM
11,"CS(=O)(=O)N(CCCCCCCCN/C(=N\C#N)Nc1ccncc1)OCC1CCCCC1 [Compound 1124, N-(8-(2-cyano-3-(pyridin-4-yl)guanidino)octyl)-N-(cyclohexylmethoxy)methanesulfonamide]",0.15 nM
12,"N#C/N=C(\NCCCCCCCN(CCF)S(=O)(=O)C1CCCCC1)Nc1ccncc1 [Compound 1098, N-(7-(2-cyano-3-(pyridin-4-yl)guanidino)heptyl)-N-(2-fluoroethyl)cyclohexansylfonamide]",0.07 nM
13,"CNC(=S)N(CCCCCCN/C(=N\C#N)Nc1ccncc1)OCC1CCCCC1 [Compound 1116, 1-(6-(2-cyano-3-(pyridin-4-yl)guanidino)hexyl)-1-(cyclohexylmethoxy)-3-methylthiourea]",0.056 nM
14,"CCS(=O)(=O)N(CCCCCCCNC(=O)Nc1ccncc1)OCC1CCCCC1 [Compound 1064, N-(cyclohexylmethoxy)-N-(7-(3-(pyridin-4-yl)ureido)heptyl)ethanesulfonamide]",0.44 nM
15,"CS(=O)(=O)N(CCCCCCCN/C(=N\C#N)Nc1ccncc1)OCC1CCCCC1 [Compound 1118, N-(7-(2-cyano-3-(pyridin-4-yl)guanidino)heptyl)-N-(cyclohexylmethoxy)methanesulfonamide]",0.046 nM
16,"N#C/N=C(\NCCCCCCCCN(CCCN1CCOCC1)C(=O)NC1CCCCC1)Nc1ccncc1 [Compound 1093, 1-(8-(2-cyano-3-(pyridin-4-yl)guanidino)octyl)-3-cyclohexyl-1-(morpholinopropyl)urea]",0.063 nM
17,O=C(NCCCCCCCCN(CCCN1CCOCC1)S(=O)(=O)c1ccccc1)NCc1cccnc1 [Compound 1037],0.002 nM
18,"CCON(CCCCCCCCN/C(=N\C#N)Nc1ccncc1)Cc1ccccc1 [Compound 1085, 1-(8-(benzyl(ethoxy)amino)octyl)-2-cyano-3-(pyridin-4-yl)guanidine]",0.062 nM
19,"CCS(=O)(=O)N(CCCCCCCNc1c(Nc2ccncc2)c(=O)c1=O)OCC1CCCCC1 [Compound 1061, N-(cyclohexylmethoxy)-N-(7-(3,4-dioxo-2-(pyridin-4-ylamino)cyclobut-1-enylamino)heptyl)ethanesulfonamide]",0.35 nM
20,"CCNC(=O)N(CCCCCCN/C(=N\C#N)Nc1ccncc1)OCC1CCCCC1 [Compound 1114, 1-(6-(2-cyano-3-(pyridin-4-yl)guanidino)hexyl)-1-(cyclohexylmethoxy)-3-ethylurea]",0.057 nM
